Results as given in a melting point compilation (Tetko et al.; mined from patent text by program, amines drawn as free bases though some values may be those of a salt).

SMILES	melting point
O=C(O)COc1ccc2cc(-c3oc4ccccc4c3CCC3CCCC3)ccc2c1Br	155 to 156 °C
COC(=O)c1ccc([N+](=O)[O-])cc1-n1c(CCl)nc2ccccc2c1=O	158 to 159 °C
COC(=O)Cc1ccc(C#N)cc1C	52 to 54 °C
CC(=O)C(C(=O)N(CCN(C)C)c1ccccc1)=C(N)c1ccccc1	81 to 83 °C
CC(=O)Nc1cc(C(F)(F)F)ccc1SCC#N	103 °C
CCN(CC)CCNC(=O)c1cc(Cl)c(N)cc1OCC(C)O (stereo unspecified)	149 to 150 °C
CN[C@H]1CCN(c2c(-c3csc(C)n3)c(C)c(C#N)c3nc(C(=O)N(C)C)oc23)C1	138 to 140 °C
CCCN(CCC)CC1CCCCN1CCNC(=O)N1c2ccccc2C(=O)Nc2cccnc21 (stereo unspecified)	165 °C
CCOC(=O)C1CCN(C(=O)COc2cc(-c3ccccc3)nc3ccccc23)CC1	120 °C
CN1CCN(C2=Nc3ccccc3-n3ccc4cc(Br)cc2c43)CC1	157 to 159 °C
CCOC(=O)CCSc1nnsc1-c1ccc(C)cc1	68.5 to 69.5 °C
COc1cc(OC)cc(N2CCC(c3c(N)nc(N)[nH]c3=O)CC2)c1	> 250 °C
CC1(C)OC(=O)C(C)(N=Nc2ccc(F)cc2Br)C(=O)O1	92 to 93 °C
CCOC(=O)COc1c(Br)cc(-c2cccc3sc4ccccc4c23)cc1Br	140 to 142 °C
CCC(Oc1cncc(Cl)c1)C(=O)O (stereo unspecified)	98 to 101 °C
CCCCOC(=O)C(NC(=O)OCc1ccccc1)c1cccs1 (stereo unspecified)	37 °C
Cc1ccc(-c2ncc3c(n2)CCCC3)nc1-c1ccc(C=O)cc1	151 to 154 °C
COC(=O)c1cccc2c(C(=O)c3ccccc3)c(C)oc12	70 to 72 °C
CCCCCCCC(O)CC(=O)O (stereo unspecified)	55 to 56 °C
CCNC(=O)c1c(Cl)ccc(Br)c1[Si](C)(C)C	155 to 157 °C
CC(C)Cn1c(=O)n(C)c(=O)c2c(Sc3nc(Br)n[nH]3)c(Cc3ccccc3C(F)(F)F)sc21	174 to 175 °C
Cc1nc2c(cc1Cl)C(=O)OC2=O	140 to 141 °C
CN(Cc1cc(C(F)(F)F)cc(C(F)(F)F)c1)C(=O)c1c(-c2ccc(F)cc2)c2c(c(=O)n1C)CNCC2	178 to 180 °C
CN[C@H]1CCN(c2c(F)cc3c(=O)n(NC)c(=O)n(C4CC4)c3c2Cl)C1	77 to 79 °C
CNC(=O)c1ccc(N2CCN(Cc3cnc4c(c3)[nH]c(=O)n3cccc43)CC2)c(F)c1	288 to 294 °C
O=C(NC(Cc1ccccc1)C1CC(Cc2ccccc2)=NO1)OCc1ccccc1 (stereo unspecified)	87.5 to 89.5 °C

SMILES	melting point
O=C1NCCN(Cc2cc(=O)c(OCc3ccccc3)cn2Cc2ccccc2)C1=O	260 to 265 °C
N#Cc1cc(C=Cc2ccc(N(c3ccccc3)c3ccccc3)cc2)c(C#N)cc1C=Cc1ccc(N(c2ccccc2)c2ccccc2)cc1	260 °C
CC(=NO)c1cccc(N)c1	133 °C
Cn1cc(C2=C(c3c4n(c5ccccc35)CCC(C(N)=O)C4)C(=O)NC2=O)c2ccccc21 (stereo unspecified)	315 to 316 °C
COc1ccc(I)cc1CN	95 to 97 °C
CC(=O)N1N=C(c2ccc(N)cc2)c2cc3c(cc2C=C1C)OCO3	175 to 180 °C
COC(=O)c1ccc(CCCO)c(C23CC4CC(CC(C4)C2)C3)c1	77 °C
Cc1ccc(N2C(=O)C(O)=C(C(=O)c3ccc(C(C)C)cc3)C2c2ccc(Cn3cnnn3)cc2)nn1 (stereo unspecified)	> 300 °C
Cc1ccccc1C(=O)COc1c(C(=O)c2ccc(Cl)c(C)c2Cl)c(C)nn1C	154 °C
CC(C)(C)OC(=O)N1CCC(C(=O)N2CCC(c3[nH]nc4c3C(=O)c3c(NC(=O)NN5CCOCC5)cccc3-4)CC2)CC1	220 to 222 °C
Nc1nc2ccccc2c2c1nc1n2CCCN1	> 250 °C
Cc1cc(Cl)c(-n2nc(C)n(C(F)F)c2=O)cc1O	154 to 156 °C
CN1CCN(c2cc3c(Br)cccc3c(=O)[nH]2)CC1CO (stereo unspecified)	200 to 202 °C
COC(=O)Cc1nc(-c2ccc3ccccc3c2)oc1C	86 to 87 °C
CC(C)CC(NC(=O)C(Cc1c[nH]cn1)NC(=O)C(Cc1cccc2ccccc12)NC(=O)OCc1ccccc1)C(O)CC(=O)O (stereo unspecified)	191 to 192 °C
O=c1c(CO)csc2ccc3ccccc3c12	158 to 159 °C
O=C1Nc2c(ccc3c2CCCC3)SC1CCCN1CCN(c2ccc(F)cc2)CC1 (stereo unspecified)	145 to 147 °C
COc1ccc(F)c(/C=C/CN2C(=O)c3ccccc3C2=O)c1	118 °C
COCc1c(C(=O)OC(C)C)ncc2[nH]c3c(c12)C(=O)CCC3	243 to 245 °C
Cc1ccccc1-n1cnnc1C(F)(F)F	75 °C
COc1ccc(C(=O)Nc2ccc(C(C)(C)CN3CCOC3=O)cc2)cc1OC	190 to 191 °C
Nc1cccnc1Cc1ccccc1	84 to 86 °C
CC(=O)Nc1ccc(-c2coc3cc(OC(C)=O)c(O)cc3c2=O)cc1	265 to 266 °C
CCCCN(CCCC)C(=O)Nc1ccccc1	82 °C
CCCNC(=C1Sc2ccccc2C1=O)c1ccccc1	124 to 125 °C
CCCCCCCC/C=C\CCCCCCCCOc1ccc(C(=O)O)o1	93 to 96 °C

SMILES	melting point
Cn1c(Br)c(C#N)c(C(F)(F)F)c1Br	101 to 104 °C
Cc1ccc(Sc2cncc3sc(C(N)=S)cc23)cc1	181 to 183 °C
COC(=O)c1ccc(Nc2cccc3ccccc23)cc1	130 to 132 °C
Nc1ccc(Sc2cc(F)ccc2CC(=O)O)cc1	151 to 155 °C
O=c1c2ccccc2nc(-n2ccnc2)n1-c1ccccc1	163 to 165 °C
C[C@H](NC(=O)c1c[nH]c2ncc(C3CC3)nc12)C(C)(C)O	272 to 274 °C
C=CCOc1ccc(OC2CCCCO2)c2c1NC(=O)CC2 (stereo unspecified)	111 to 113 °C
O=C(O)CCC1Cc2ccccc2C1	99 to 100 °C
FC(F)(F)c1cc(OCc2ccc(-c3ccccc3-c3nnn(C(c4ccccc4)(c4ccccc4)c4ccccc4)n3)cc2)c2c(n1)CCCC2	141 to 143 °C
Clc1ccc(C(c2ccc(Cl)cc2)N2CCN(C(c3ccccc3)c3c[nH]c4cccc(Cl)c34)CC2)cc1 (stereo unspecified)	100 to 105 °C
COc1cc(OC)nc(Oc2cccc(F)c2)n1	45 °C
CCc1c(C)nc2ccc(C)cn2c1=O	154 to 156 °C
CC(C)c1ccc(N(Cc2ccc(O)cc2)C(=O)C2CCCc3c(O)cccc32)cc1 (stereo unspecified)	241 to 243 °C
CCCCN(CC)c1cc(C)nc(Sc2c(C)cc(C)cc2C)c1	110 to 112 °C
CS(=O)(=O)Nc1cccc(Nc2nc(NCc3cccc(O)c3)c3nc[nH]c3n2)c1	221 to 225 °C
N=C1NCCCN1Cc1ccc(Cl)nc1	220 °C
CC(C)n1nc(-c2cnc3[nH]cc(C(=O)N[C@H](C)C(=O)N4CC(C#N)C4)c3n2)c2ccc(Cl)cc21	204 to 208 °C
O=S1(=O)Cc2cc(Cl)c(Cl)cc2C(c2ccc(F)cc2)=NN1	196 to 200 °C
NCc1ccc(S(=O)(=O)c2ccc(S(N)(=O)=O)s2)cc1	225 to 228 °C
c1ccc2c(N3CCNCC3)nsc2c1	88 to 90 °C
CCC(=CC(CNC(=O)c1cnccn1)=NO)C(C)[N+](=O)[O-] (stereo unspecified)	120 to 121 °C
CC(=O)Nc1nc2c(Oc3cc(-c4ccc(C(F)(F)F)cc4O)ncn3)cccc2s1	302 to 304 °C
C=CCn1c2c(c3cc(OCCN(C)C)ccc31)C(=O)c1cc(OC)c(OC)cc1-2	138 °C
COC(=O)C=Cc1cc(-n2nc(C)n(C(F)F)c2=O)c(Cl)cc1Cl	148 to 151 °C
COC(=O)C[C@@H](CC(=O)C=Cc1c(-c2ccc(F)cc2)c(-c2ccc(F)cc2)c(C(=O)Nc2ccc(S(N)(=O)=O)cc2)n1C(C)C)O[Si](C)(C)C(C)(C)C	108 to 110 °C
CCOC1CC2(C)C(CCC3C4CCC(C(=O)CBr)C4(C)CC(=O)C32)CC1O (stereo unspecified)	74 to 78 °C

SMILES	melting point
Cn1c(C(F)(F)F)cc(=O)n(-c2ccc3snc(C=C(Br)Br)c3c2)c1=O	260 to 262 °C
Cc1cccc(C)c1C(=O)c1nc[nH]c1C	179 to 181 °C
CS(=O)(=O)C(=C1CN(C(c2ccccc2)c2ccccc2)C1)c1cccc(OC(F)(F)F)c1	162 °C
NC(=O)c1cccc(NC(=O)C(F)(F)F)c1	262 to 263 °C
O=C(NC(Cc1ccccc1)C(=O)O)c1ccc(-c2ccc(OCc3ccccc3)cc2)cc1 (stereo unspecified)	302 °C
CC(=O)NC[C@H]1OC(=O)N2c3ccc(C(=O)CCl)cc3C[C@H]12	172 to 174 °C
CCNC(=O)Nc1cccc(-c2cccc(OC)c2)c1	152 to 154 °C
CCCCNc1nc(C)cc(Cl)n1	35 to 36 °C
Cc1cc(=O)n2c3c(cc(C(O)(C(F)(F)F)C(F)(F)F)cc13)OC2	262 to 264 °C
C=CCc1c(O)ccc(C(=O)OC)c1O	65 to 66 °C
OCC1CN(Cc2ccccc2)C(c2ccccc2)O1 (stereo unspecified)	100 °C
COc1cccc(-c2nc(N)nc(Nc3cccc([N+](=O)[O-])c3)n2)c1	197 °C
COc1ccc(C2(C#N)CCC(=O)CC2)cc1	77.5 to 79.5 °C
Cc1c(Cc2ccc(C(C)C)cc2)c2c(c(C)c1NC(=O)CC(C)(C)C)C(c1ccc(C(C)C)cc1)CO2 (stereo unspecified)	157 to 158 °C
CCOC(=O)Cc1ccc(C(=O)c2ccccc2)cc1N	150 to 152 °C
CCCCCCCCCCCCOc1ccc(CP(=O)(OC)OC)cc1	30 to 31 °C
O=C1OCc2cc([N+](=O)[O-])c(Oc3ccc(F)cc3F)cc21	164 to 166 °C
CC(=O)OCC(=O)C1CCC2C3CCC4CC(OS(=O)(=O)c5ccc(C)cc5)CCC4(C)C3C(=O)CC12C (stereo unspecified)	155 to 156 °C
Cc1ccc2ccc(N3C(=O)c4ccccc4C3OC(=O)CCCC(C)C)nc2n1 (stereo unspecified)	144 °C
CCCNCC(O)c1cccc(F)c1 (stereo unspecified)	46 to 47.3 °C
OCCCc1nc2ccccn2n1	71.5 to 73 °C
COCCOc1ccc(CCCNS(=O)(=O)c2ccccc2)c(Oc2ncc(C(F)(F)F)cc2Cl)c1	94 to 95 °C
CC1(C)Cc2sc(C(=O)O)cc2C1=O	124 to 125 °C
